Results: article PMC3663987 (Parasitology Research, 2013)

Molecular target: P-glycoprotein (Pgp, ABCB1) (Homo sapiens, UniProt P08183)
Assay: Pgp-Glo ATPase stimulation assay, recombinant human Pgp membranes
Format: biochemical

Sequence of P-glycoprotein (Pgp, ABCB1) (P08183 whole entry): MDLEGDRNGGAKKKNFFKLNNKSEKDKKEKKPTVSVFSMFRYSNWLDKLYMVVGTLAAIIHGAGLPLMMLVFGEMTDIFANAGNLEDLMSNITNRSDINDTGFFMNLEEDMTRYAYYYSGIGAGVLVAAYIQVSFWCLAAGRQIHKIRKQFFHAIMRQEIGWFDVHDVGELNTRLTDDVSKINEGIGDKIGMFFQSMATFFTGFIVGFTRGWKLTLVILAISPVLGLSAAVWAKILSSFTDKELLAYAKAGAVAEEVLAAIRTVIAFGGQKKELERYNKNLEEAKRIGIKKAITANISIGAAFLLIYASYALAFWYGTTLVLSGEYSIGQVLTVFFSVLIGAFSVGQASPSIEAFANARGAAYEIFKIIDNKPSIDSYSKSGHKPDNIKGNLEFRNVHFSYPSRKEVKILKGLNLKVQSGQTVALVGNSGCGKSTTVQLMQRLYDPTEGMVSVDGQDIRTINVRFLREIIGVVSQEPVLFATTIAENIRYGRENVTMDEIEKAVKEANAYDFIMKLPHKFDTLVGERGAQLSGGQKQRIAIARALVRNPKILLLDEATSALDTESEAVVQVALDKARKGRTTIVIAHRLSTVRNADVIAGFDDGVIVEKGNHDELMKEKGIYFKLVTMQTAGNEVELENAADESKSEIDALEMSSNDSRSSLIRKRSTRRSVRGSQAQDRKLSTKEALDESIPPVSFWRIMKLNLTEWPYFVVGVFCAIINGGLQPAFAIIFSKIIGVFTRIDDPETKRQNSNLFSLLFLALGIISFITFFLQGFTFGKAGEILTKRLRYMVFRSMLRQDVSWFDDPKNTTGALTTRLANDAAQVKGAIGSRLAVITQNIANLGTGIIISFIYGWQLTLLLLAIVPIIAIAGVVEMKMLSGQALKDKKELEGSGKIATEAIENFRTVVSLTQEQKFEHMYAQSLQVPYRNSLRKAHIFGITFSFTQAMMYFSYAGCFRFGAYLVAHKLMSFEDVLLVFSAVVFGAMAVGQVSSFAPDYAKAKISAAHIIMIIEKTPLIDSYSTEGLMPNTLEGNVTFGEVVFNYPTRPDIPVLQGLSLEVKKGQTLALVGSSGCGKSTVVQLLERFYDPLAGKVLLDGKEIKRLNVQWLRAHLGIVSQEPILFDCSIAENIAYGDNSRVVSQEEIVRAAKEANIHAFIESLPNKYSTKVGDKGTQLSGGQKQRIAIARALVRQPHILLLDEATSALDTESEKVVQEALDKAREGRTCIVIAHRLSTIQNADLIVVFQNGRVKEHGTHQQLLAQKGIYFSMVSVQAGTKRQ

Structure (SMILES): O=C(Cn1ccnc1[N+](=O)[O-])NCc1ccccc1 [Bz, N-Benzyl-2-nitro-1H-imidazole-1-acetamide]
- EC50: 277 µM
